# According to patent publication US20240383893A1, “Hydroxamic Acid Compound Having ENPP1 Inhibitory Activity and Use Thereof” (Haihe Biopharma Co., Ltd., priority 2021, published 2024):
# Where two headings read alike, the source gives them in different places.
# Columns and labels:
# ENPP1 (hENPP1-ECD-His) [1] = target: T1, ENPP1 (hENPP1-ECD-His) (Homo sapiens (Human), UniProt P22413); test: biochemical
# ENPP1 (hENPP1-ECD-His) [2] = target: T1, ENPP1 (hENPP1-ECD-His)
# [3] = Preliminary pharmacokinetic testing in ICR mice (gavage 5 mg/kg, intravenous 1 mg/kg); type: in vivo; settings: male, mouse, plasma; for AUC(0-t) / half-life / Cmax: oral administration (5 mg/kg); for Cmax: read-out: Cmax
# Procedure: 1. 6 healthy ICR mice, male, weighing 30-35 g, were randomly divided into 2 groups with 3 mice in each group. The tested compound was administered by gavage (5 mg/kg) and intravenous injection (1 mg/kg), respectively:
# Feeding uniformly 4 hours after administration.
# T1 sequence (P22413 98-925): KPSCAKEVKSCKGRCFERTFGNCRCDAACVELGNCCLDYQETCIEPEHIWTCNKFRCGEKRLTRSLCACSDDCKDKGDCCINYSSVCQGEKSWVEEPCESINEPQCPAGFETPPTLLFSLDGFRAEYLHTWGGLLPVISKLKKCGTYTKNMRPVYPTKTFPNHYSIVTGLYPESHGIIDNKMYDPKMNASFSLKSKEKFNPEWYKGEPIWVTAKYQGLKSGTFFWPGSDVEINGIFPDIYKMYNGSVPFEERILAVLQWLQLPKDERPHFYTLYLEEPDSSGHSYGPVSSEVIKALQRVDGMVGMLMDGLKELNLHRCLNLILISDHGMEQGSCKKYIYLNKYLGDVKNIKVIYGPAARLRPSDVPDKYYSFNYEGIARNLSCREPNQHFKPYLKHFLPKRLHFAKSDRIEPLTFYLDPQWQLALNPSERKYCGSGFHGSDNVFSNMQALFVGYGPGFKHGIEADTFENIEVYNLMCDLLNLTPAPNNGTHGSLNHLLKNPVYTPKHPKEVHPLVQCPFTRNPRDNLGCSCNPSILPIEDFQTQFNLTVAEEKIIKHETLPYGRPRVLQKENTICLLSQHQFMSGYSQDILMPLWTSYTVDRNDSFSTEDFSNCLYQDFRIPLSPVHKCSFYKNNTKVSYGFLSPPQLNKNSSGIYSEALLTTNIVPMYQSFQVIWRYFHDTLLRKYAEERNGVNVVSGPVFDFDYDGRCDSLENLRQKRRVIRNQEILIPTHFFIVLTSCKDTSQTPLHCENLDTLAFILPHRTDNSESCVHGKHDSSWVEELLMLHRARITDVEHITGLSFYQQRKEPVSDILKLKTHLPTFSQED
structure (smiles),measurement,setting,value
COc1cc2nccc(Nc3cnn(C4(C(=O)NO)CCOCC4)c3)c2cn1 [Compound 183],IC50,ENPP1 (hENPP1-ECD-His) [1],6.8 nM
CC(C)C(C(=O)NO)c1ccc(Nc2ncnc3c2cnn3C)cc1 (stereo not drawn) [Compound 199],IC50,ENPP1 (hENPP1-ECD-His) [1],317 nM
CCOC(C(=O)NO)c1ccc(Oc2ccnc3nc(OC)ccc23)cc1 (stereo not drawn) [Compound 86],IC50,ENPP1 (hENPP1-ECD-His) [1],3.7 nM
Cn1ncc2c(Nc3ccc(C(C)(C)C(=O)NO)cc3)ncnc21 [Compound 68],IC50,ENPP1 (hENPP1-ECD-His) [2],4.8 nM
same,AUC(0-t),[3],161 ng·h/mL
same,half-life,[3],146 min
same,Cmax,[3],244 ng/mL
same,bioavailability,"[3]; oral administration (5 mg/kg) vs intravenous (1 mg/kg), read-out: F %",20.2%
COc1ccc2c(Oc3cnn(C(C)(C)C(=O)NO)c3)ccnc2n1 [Compound 155],IC50,ENPP1 (hENPP1-ECD-His) [1],28 nM
CNc1ccc2c(Oc3ccc(C(C)(C)C(=O)NO)cc3)ccnc2c1 [Compound 102],IC50,ENPP1 (hENPP1-ECD-His) [1],389 nM
COc1ccc2c(Oc3ccc(C(F)C(=O)NO)cc3)ccnc2n1 (stereo not drawn) [Compound 43],IC50,ENPP1 (hENPP1-ECD-His) [1],5.3 nM
COc1ccc2c(Oc3ccc(C(C)(C)C(=O)NO)c(F)c3)ccnc2n1 [Compound 110],AUC(0-t),[3],1590 ng·h/mL
same,half-life,[3],234 min
same,Cmax,[3],2370 ng/mL
same,bioavailability,"[3]; po, 5 mg/kg, read-out: oral bioavailability",> 20%
COc1ccc2c(Oc3ccc(C(C)(C)C(=O)NO)cc3)ccnc2n1 [Compound 42],AUC(0-t),[3],887 ng·h/mL
same,half-life,[3],78 min
same,Cmax,[3],1490 ng/mL
